Measured values reported in the NIST ThermoML archive (doi:10.1021/acs.jced.5b00613).
Numbers after ± are expanded uncertainties.

Assay: xn = mol fraction of the nth substance listed
Settings: Liquid, Vibrating tube method

CCCCCCCCCCCCCCCC [hexadecane] + CCCCCC
mass density [kg/m3]
Settings	100 kPa	1000 kPa	5000 kPa	10000 kPa	20000 kPa	30000 kPa	40000 kPa	50000 kPa	60000 kPa
348.15 K, x2 = 0.1985	–	–	–	–	–	–	–	–	765.6 ± 1
348.15 K, x2 = 0.4136	–	–	–	–	–	–	–	–	751.9 ± 1
348.15 K, x2 = 0.5007	–	–	–	–	–	–	–	–	744.2 ± 1
348.15 K, x2 = 0.5966	–	–	–	–	–	–	–	–	735.5 ± 1
348.15 K, x2 = 0.7928	–	–	–	–	–	–	–	704.3 ± 1	711 ± 1.1
373.15 K, x2 = 0.1985	706.6 ± 5	707.5 ± 3	711.7 ± 3	716.4 ± 3	725.2 ± 3	733 ± 3	740.1 ± 3	746.6 ± 3.1	752.7 ± 3.1
373.15 K, x2 = 0.4136	689.1 ± 5	690.2 ± 3	694.8 ± 3	699.9 ± 3	709.4 ± 3	717.7 ± 3	725.3 ± 3.1	732.3 ± 3.1	738.7 ± 3.1
373.15 K, x2 = 0.5007	–	681 ± 3	685.8 ± 3	691.2 ± 3	701 ± 3	709.7 ± 3	717.5 ± 3.1	724.6 ± 3.1	731.2 ± 3.1
373.15 K, x2 = 0.5966	–	669.9 ± 3	674.9 ± 3	680.7 ± 3	691 ± 3	700 ± 3	708 ± 3.1	715.3 ± 3.1	722.1 ± 3.1
373.15 K, x2 = 0.7928	–	638.3 ± 3	644.3 ± 3	651 ± 3	662.7 ± 3	672.8 ± 3.1	681.7 ± 3.1	689.7 ± 3.1	697 ± 3.1
423.15 K, x2 = 0.1985	668.8 ± 5	670.8 ± 3	676.3 ± 3	682.5 ± 3	693.7 ± 3	703.3 ± 3	711.9 ± 3.1	719.7 ± 3.1	726.8 ± 3.1
423.15 K, x2 = 0.4136	–	651.3 ± 3	657.6 ± 3	664.5 ± 3	676.6 ± 3	687.1 ± 3	696.3 ± 3.1	704.6 ± 3.1	712.1 ± 3.1
423.15 K, x2 = 0.5007	–	640.9 ± 3	647.6 ± 3	654.9 ± 3	667.6 ± 3	678.5 ± 3.1	688 ± 3.1	696.5 ± 3.1	704.2 ± 3.1
423.15 K, x2 = 0.5966	–	628.2 ± 3	635.3 ± 3	643.3 ± 3	656.9 ± 3	668.3 ± 3.1	678.2 ± 3.1	687.1 ± 3.1	695.2 ± 3.1
423.15 K, x2 = 0.7928	–	592.3 ± 3	601.2 ± 3	610.7 ± 3	626.4 ± 3	639.2 ± 3.1	650.3 ± 3.1	660 ± 3.1	668.8 ± 3.1
463.15 K, x2 = 0.1985	–	640.3 ± 5	647.5 ± 3	655.5 ± 3	669.1 ± 3	680.6 ± 3.1	690.5 ± 3.1	699.3 ± 3.1	707.4 ± 3.1
463.15 K, x2 = 0.4136	–	618.2 ± 5	626.5 ± 3	635.6 ± 3	650.7 ± 3	663.2 ± 3.1	673.9 ± 3.1	683.4 ± 3.1	692 ± 3.1
463.15 K, x2 = 0.5007	–	606.1 ± 5	615.2 ± 3	624.9 ± 3	640.9 ± 3	654 ± 3.1	665.1 ± 3.1	674.9 ± 3.1	683.6 ± 3.1
463.15 K, x2 = 0.5966	–	593 ± 5	602.9 ± 3	613.2 ± 3	630 ± 3	643.6 ± 3.1	655.2 ± 3.1	665.3 ± 3.1	674.4 ± 3.1
463.15 K, x2 = 0.7928	–	–	563.7 ± 3	577 ± 3	597.1 ± 3.1	612.8 ± 3.1	625.8 ± 3.1	637 ± 3.1	647 ± 3.2
